Laboratory results: patent US12458732B2, “Porous composites with high-aspect ratio crystals” (W. L. Gore & Associates, Inc., priority 2013, dated 2025)

Tests used:
[1] = ethylene oxide sterilization of coated ePTFE substrates, SEM visualization; format: physicochemical; settings: conditioning about 24 hr, EtO dwell about 22 hr, 64° C., aeration about 12 hrs; samples of Examples 6 and 7
Experimental: Representative samples of Examples 6 and 7 were exposed to ethylene oxide sterilization, under conditions of conditioning for about 24 hr, an EtO gas dwell time of about 22 hr, a set point temperature of 64° C., and an aeration time of about 12 hrs. The samples were then visualized with SEM.

[2] = tested on: carotid artery endothelial layer; experiment: ex vivo transfer of drug crystals from an ePTFE substrate to a vascular tissue; set-up: species or system swine; settings: 60 sec compression at 5.4 atm
Experimental: Substrates of ePTFE of Examples 1 and 2 were coated with paclitaxel (10 mg/ml) or paclitaxel/urea (1:1 mass ratio; 10 mg/ml paclitaxel) according to Example 4. The substrates were examined under SEM to confirm the presence of high aspect paclitaxel crystal habits embedded and oriented in the ePTFE microstructure.
A freshly harvested carotid artery from >2 yr old swine (Animal Technologies Inc., Tyler TX) was slit axially using a scalpel blade, cut lengthwise into portions, everted, and the portions adhered to a glass microscope slide using cyanoacrylate adhesive (Loctite), luminal aspect up. Tissue portions were kept wet using phosphate-buffered saline until use.
The glass microscope slide containing the artery portion was gently placed, tissue side down, upon the coated ePTFE substrate, to expose the endothelial layer to the paclitaxel crystals. The endothelial layer was compressed at about 5.4 atm against the coated ePTFE substrate for 60 sec. The glass microscope slide containing the artery portion was then examined under SEM.

acicular habits, geometry, penetration into ePTFE and angles of projection after ethylene oxide sterilization [1]: unaffected
high aspect ratio of the crystals after compression (mechanical stability and strength) [2]: intact
Compound: CC(=O)O[C@H]1C(=O)[C@@]2(C)[C@H]([C@H](OC(=O)c3ccccc3)[C@]3(O)C[C@H](OC(=O)[C@H](O)[C@@H](NC(=O)c4ccccc4)c4ccccc4)C(C)=C1C3(C)C)[C@]1(OC(C)=O)CO[C@@H]1C[C@@H]2O [paclitaxel]
